Measurements published in patent US20230346827A1 (priority 2020, published 2023).
Marks after values point to notes of the source that are not given here.

Tested on: rats subjected to sTBI
Test: sTBI rats, LMW-DS 15 mg/kg s.c.: HPLC of brain purine-pyrimidine/energy metabolites (Example 3)
Assay type: in vivo, rat
Description: The experimental protocol used in this study was approved by the Ethical Committee of the Catholic University of Rome, according to international standards and guidelines for animal care. Male Wistar rats of 300-350 g body weight (b.w.) were fed with standard laboratory diet and water ad libitum in a controlled environment.
They were divided into three groups: • 1) n = 6 animals subjected to sTBI, with drug administration after 30 minutes and sacrifice at 2 days post-TBI (Acute phase 1) • 2) n= 6 animals subjected to sTBI, with drug administration after 30 minutes and sacrifice at 7 days post-TBI (Acute phase 2). • 3) n= 6 animals subjected to sTBI, with drug administration after 3 days and sacrifice at 7 days post-TBI (Chronic phase).
As the anesthetic mixture, animals received 35 mg/kg b.w. ketamine and 0.25 mg/kg b.w. midazolam by i.p. injection. sTBI was induced by dropping a 450 g weight from 2 m height on to the rat head that had been protected by a metal disk previously fixed on the skull, according to the “weight drop” impact acceleration model (Marmarou et al., J Neurosurg. 1994; 80: 291-300). […] At the end of each period of treatment, rats were anesthetized again and then immediately sacrificed.
The drug treatment was a subcutaneous injection of 0.5 ml of LMW-DS (ILB®, Tikomed AB, Viken, Sweden, WO 2016/076780; 15 mg/kg) and administered according to the aforementioned schematic protocol.
An in vivo craniectomy was performed in all animals during anesthesia, after carefully removing the rat’s skull, the brain was exposed and removed with a surgical spatula and quickly dropped in liquid nitrogen. After the wet weight (w.w.) determination, tissue preparation was affected as previously disclosed (Tavazzi et al., Neurosurgery. 2005; 56: 582-589; Vagnozzi et al., Neurosurgery. 2007; 61: 379-388; Tavazzi et al., Neurosurgery. 2007; 61: 390-395; Amorini et al., J Cell Mol Med. 2017; 21: 530-542.). Briefly, whole brain homogenization was performed with 7 ml of ice-cold, nitrogen-saturated, precipitating solution composed by CH3CN + 10 mM KH2PO4, pH 7.40, (3:1; v:v), and using an Ultra-Turrax set at 24,000 rpm/min (Janke & Kunkel, Staufen, Germany). After centrifugation at 20,690 x g, for 10 min at 4° C., the clear supernatants were saved, pellets were supplemented with 3 ml of the precipitating solution and homogenized again as described above. A second centrifugation was performed (20,690 x g, for 10 min at 4° C.), pellets were saved, supernatants combined with those previously obtained, extracted by vigorous agitation with a double volume of HPLC-grade CHCl3 and centrifuged as above. The upper aqueous phases containing water-soluble low-molecular weight compounds were collected, subjected to chloroform washings for two more times (this procedure allowed the removal of all the organic solvent and of any lipid soluble compound from the buffered tissue extracts), adjusted in volumes with 10 mM KH2PO4, pH 7.40, to have ultimately aqueous 10% tissue homogenates and saved at -80° C. until assayed.
Aliquots of each deproteinized tissue samples were filtered through a 0.45 µm HV Millipore filter and loaded (200 µl) onto a Hypersil C-18, 250 × 4.6 mm, 5 µm particle size column, provided with its own guard column (Thermo Fisher Scientific, Rodano, Milan, Italy) and connected to an HPLC apparatus consisting of a Surveyor System (Thermo Fisher Scientific, Rodano, Milan, Italy) with a highly sensitive diode array detector (equipped with a 5 cm light path flow cell) and set up between 200 and 300 nm wavelength. Data acquisition and analysis were performed by a PC using the ChromQuest® software package provided by the HPLC manufacturer. […]

[1] = Acute phase 1: drug 30 min, sacrifice 2 d post-TBI
[2] = Acute phase 2: drug 30 min, sacrifice 7 d post-TBI
[3] = Chronic phase: drug 3 d, sacrifice 7 d post-TBI
[4] = after administration of LMW-DS 15 mg/kg

## sodium salt of dextran sulfate [LMW-DS]
[1]
  ASCORBIC ACID: 3733.10±277.88^a,d nmol/g (w.w.)
  CDP choline: 10.93±3.22^b,h nmol/g (w.w.)
  CMP: 30.12±9.97^a,h nmol/g (w.w.)
  CREATININE: 24.55±3.20^b,g,i nmol/g (w.w.)
  CYTIDINE: 15.40 ± 3.04 nmol/g (w.w.)
  CYTOSINE: 17.69±2.50^b,d nmol/g (w.w.)
  GSH: 2649.50±397.31^a,d nmol/g (w.w.)
  GUANINE: 4.80±1.24^b nmol/g (w.w.)
  GUANOSINE: 20.71 ± 5.66 nmol/g (w.w.)
  HYPOXANTHINE: 14.47±2.87^a nmol/g (w.w.)
  INOSINE: 92.55±31.20^c nmol/g (w.w.)
  MDA: 12.47±2.09^a,c,g nmol/g (w.w.)
  NO2: 216.03±41.74^a nmol/g (w.w.)
  URACIL: 14.56 ± 5.44 nmol/g (w.w.)
  URIC ACID: 23.62±3.77^a,d,h nmol/g (w.w.)
  URIDINE: 76.35±12.85^a,c nmol/g (w.w.)
  XANTHINE: 9.46±2.34^d nmol/g (w.w.)
  adenine: 44.82±6.31 ^a,d,g nmol/g (w.w.)
  thymidine: 0.69 ± 0.11 nmol/g (w.w.)
  β-PSEUDOURIDINE: 6.65±1.30^g,i nmol/g (w.w.)
[2]
  ASCORBIC ACID: 3512.58±224.62^a,e nmol/g (w.w.)
  CDP choline: 6.91 ± 1.86 nmol/g (w.w.)
  CMP: 15.68±2.12^f,j nmol/g (w.w.)
  CREATININE: 37.27±5.82^a,e,j nmol/g (w.w.)
  CYTIDINE: 16.18±4.21^e nmol/g (w.w.)
  CYTOSINE: 15.70±4.10^f nmol/g (w.w.)
  GSH: 2821.50±242.82^a,e nmol/g (w.w.)
  GUANINE: 4.73 ± 1.07 nmol/g (w.w.)
  GUANOSINE: 17.90±3.24^j nmol/g (w.w.)
  HYPOXANTHINE: 12.90±2.58^a,j nmol/g (w.w.)
  INOSINE: 85.52±20.36^e nmol/g (w.w.)
  MDA: 4.82±1.73^a,e,i nmol/g (w.w.)
  NO2: 226.40±30.95^b nmol/g (w.w.)
  URACIL: 19.40±7.52^a,e nmol/g (w.w.)
  URIC ACID: 19.17±2.15^a,h,i nmol/g (w.w.)
  URIDINE: 63.02±9.66^b,e nmol/g (w.w.)
  XANTHINE: 10.41±2.11^f nmol/g (w.w.)
  adenine: 58.16±6.36^a,f nmol/g (w.w.)
  thymidine: 0.49±0.20^f nmol/g (w.w.)
  β-PSEUDOURIDINE: 13.26±3.16^a,e,j nmol/g (w.w.)
[3]
  ASCORBIC ACID: 3375.03±856.41 ^a,e nmol/g (w.w.)
  CDP choline: 8.37 ± 2.19 nmol/g (w.w.)
  CMP: 20.51±3.73^a,f nmol/g (w.w.)
  CREATININE: 51.25±10.17^a,f nmol/g (w.w.)
  CYTIDINE: 14.71±2.83^e nmol/g (w.w.)
  CYTOSINE: 15.58±2.50^b,f nmol/g (w.w.)
  GSH: 2608.67±358.07^a,e nmol/g (w.w.)
  GUANINE: 5.31±1.04^b nmol/g (w.w.)
  GUANOSINE: 28.87±7.60^a,f nmol/g (w.w.)
  HYPOXANTHINE: 17.97±4.49^a nmol/g (w.w.)
  INOSINE: 105.81±25.57^f nmol/g (w.w.)
  MDA: 11.62±3.90^a,e nmol/g (w.w.)
  NO2: 217.67±55.04^a nmol/g (w.w.)
  URACIL: 16.57±2.99^a f nmol/g (w.w.)
  URIC ACID: 27.77±3.60^a nmol/g (w.w.)
  URIDINE: 63.28±3.37^f nmol/g (w.w.)
  XANTHINE: 9.35±0.83^f nmol/g (w.w.)
  adenine: 52.94±8.59^a,f nmol/g (w.w.)
  thymidine: 0.71 ± 0.11 nmol/g (w.w.)
  β-PSEUDOURIDINE: 18.62±2.80^a nmol/g (w.w.)
Acute and chronic phases of sTBI
  nitrate concentrations: significantly decreased
[4]
  MDA levels: significant reduction
  ascorbic acid and GSH levels: significant improvement
After sTBI, LMW-DS 15 mg/kg
  NAA and its substrates, levels: significant improvements
